Read-outs that look alike come from different tables or passages of the source.
Key:
[1] = Animal weighing in radiation-induced brain injury model; format: in vivo, C57BL/6 mice; settings: full 8-week YC-6 administration, 60mg/kg/d; weighed once a week
Protocol: (§1) Table 1. Animal grouping and treatment methods
Weighing was performed once a week before and after the gamma ray radiation model construction for 8 weeks.

[2] = tested on: gamma knife irradiation induced focal radiation-induced brain injury; settings: MRI 8 weeks after 50 Gy gamma ray radiation, Mean±SEM, n=5, RBI+Saline model 15.28 ± 0.98, P<0.05 vs model
Source text: as §1
(§2) The model constructing method for focal radiation-induced brain injury caused by gamma ray radiation was modified based on reported literature. After anesthesia of mouse by intraperitoneal injection of 0.1% pentobarbital sodium solution, the body was fixed on a customized platform, and the mouse skull was scanned by X-ray computed tomography scanner for imaging processing (radiation energy of 80kV, imaging range of 250mm, layer thickness and interlayer spacing of 0.625mm, pixel size of 0.49*0.49mm). The animal irradiation position and gamma knife irradiation depth were determined based on the scanning imaging results. The mouse and customized platform were placed in a stereotactic gamma ray irradiation system for irradiation, with the irradiation site in the left thalamus of the mouse. The coordinates of the irradiation center positioning point were: 2mm behind the anterior fontanelle (AP), 2mm left of the midline (L), and 2mm below the skull dura mater (dorsal ventral DV).

MAG = settings: 60mg/kg/d YC-6 for 8 weeks; thalamus of the lesion, 8 weeks after gamma knife radiation; Mean±SEM, n=5; normal 1.04±0.047, model 0.31±0.018; P<0.0001 vs model
Source text: as §1, §2

[3] = tested on: CC1 positive oligodendrocytes; settings: 60mg/kg/d YC-6 for 8 weeks; thalamus of the lesion, 8 weeks after gamma knife radiation; Mean±SEM, n=5; normal 1608.00±47.92, model 200.60±21.47; P<0.0001 vs model
Source text: as §1, §2

GFAP positive astrocytes = settings: 60mg/kg/d YC-6 for 8 weeks; thalamus of the lesion, 8 weeks after gamma knife radiation; Mean±SEM, n=5; normal 57.80 ± 2.69, model 558.20 ± 10.07; P<0.0001 vs model
Source text: as §1, §2

C[C@@]12CCCC1C1C[C@@H](O)[C@@]3(O)C[C@@H](O)CC[C@]3(C)C1CC2 (stereo partly drawn) [YC-6, 5α-androst-3β,5,6β-triol]
body weight [1]: without affecting body weight
Volume of lesion ([2]; 60mg/kg/d YC-6 for 2 weeks, then stopped for 6 weeks): 12.28 ± 0.63^# mm^3
Volume of lesion ([2]; 60mg/kg/d YC-6 for 8 weeks): 10.27 ± 1.50^# mm^3
MAG fluorescence signal intensity (MAG): 0.44±0.018
Number of mature oligodendrocytes [3]: 506.40±30.48 Oligodendrocytes/mm^2
Number of astrocytes (GFAP positive astrocytes): 357.00 ± 10.61 Astrocytes/mm^2
